Results: patent publication US6074864A, “Cloned DNA for synthesizing unique glucocerebrosidase” (The United States of America as represented by the …, priority 1994, dated 2000)

Molecular target: T1, recombinant human glucocerebrosidase produced in baculovirus/SF9 system, enzyme in the culture media (Homo sapiens, UniProt P04062)
T1 construct: made in house; host or cells: Spodoptera frugiperda SF9 cells infected with recombinant baculovirus (AcNPV, pAc373/GC)
T1 sequence (P04062 40-536): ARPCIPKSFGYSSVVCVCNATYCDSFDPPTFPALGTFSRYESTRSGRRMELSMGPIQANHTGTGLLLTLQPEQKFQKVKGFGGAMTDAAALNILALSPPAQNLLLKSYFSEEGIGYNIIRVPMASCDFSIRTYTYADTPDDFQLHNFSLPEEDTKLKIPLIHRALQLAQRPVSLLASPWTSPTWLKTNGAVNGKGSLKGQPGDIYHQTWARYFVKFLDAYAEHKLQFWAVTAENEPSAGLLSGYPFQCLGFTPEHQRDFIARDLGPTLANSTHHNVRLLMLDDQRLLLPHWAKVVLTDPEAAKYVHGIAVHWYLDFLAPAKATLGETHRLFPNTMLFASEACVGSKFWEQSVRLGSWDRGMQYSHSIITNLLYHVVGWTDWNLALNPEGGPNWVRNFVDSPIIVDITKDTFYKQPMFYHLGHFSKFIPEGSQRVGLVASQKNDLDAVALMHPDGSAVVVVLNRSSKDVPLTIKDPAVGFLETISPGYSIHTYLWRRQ
Experiment: Km determination, β-glucosidase activity with 4MUGP
Format: biochemical
Conditions: pH 5.9, 100 mM potassium phosphate, 0.15% Triton X-100, 0.125% sodium taurocholate
Protocol: Glucocerebrosidase assays: For pH profile and inhibition studies, glucocerebrosidase activity was measured using 100 mM potassium phosphate buffer containing 0.15% Triton X-100, 2.5 μl of β-D-[1-^14 C] glucocerebroside (7.5 mg/ml in sodium taurocholate at 50 mg/ml), and the sample in the total volume of 200 ul. Preincubations with conduritol-B-epoxide were for 30 min at 37° C. […] Purification of recombinant glucocerebrosidase was also monitored using 4MUGP.

Cc1cc(=O)oc2cc(O[C@@H]3O[C@H](CO)[C@@H](O)[C@H](O)[C@H]3O)ccc12 [4MUGP, 4-methylumbellifery-β-D-glucopyranoside]
Km: 3.3 mM
